# Source: US20240140931A1, “TRICYCLIC COMPOUNDS AND USES THEREOF” (HUTCHMED LIMITED, priority 2021, published 2024)
# Key:
# [1] = tested on: Miapaca2 3D spheroids; test: Assay of cell proliferation on Miapaca2 3D spheroids; assay type: cell-based; settings: CellTiter-Glo 3D, 5 days treatment
# Description: Example 4 Assay of Cell Proliferation on Miapaca2 3D Spheroids
# 1. Reagents and Materials • CellTiter-Glo® 3D Cell Viability Assay Kit: Promega, Cat #G9683; • CellCarrier Spheroid ULA 96-well plate: Corning, Cat #4515; • Instrument: Envision, Perkinelmer; • Cell line: Miapaca2, ATCC, Cat #CRL-1420.
# 2. Preparation of Reaction Solutions • The test compound was dissolved in DMSO and diluted with DMSO to 3000.0 μM, and the compound was further 3-fold diluted with DMSO to: 1000.0, 333.3, 111.1, 37.0, 12.3, 4.1, and 1.4 μM. Then 2 μL of the compound at different dilution concentrations was added to 198 μL of a 1640 medium to prepare a 10× test compound, wherein DMSO was at the concentration of 1% (DMSO was at the final concentration of 0.1%).
# 3. Experimental Methods • Day0: Digest cells and count cell numbers. Miapaca2 cells were inoculated into a spheroid ULA 96-well plate at a density of 300 cells/well at 100 μL/well and cultured in a cell incubator at 5% CO2 and 37° C. • Day2: The cell spheroids formed at day2. Add 10 μL of 10× test compounds to the 96-well plate. To the cell positive control well was added 10 μL of 1% DMSO 1640 medium. Incubate the cell spheroids in a cell incubator at 5% CO2 and 37° C. for additional 5 days. • Cell viability assay: Add 50 μL of CellTiter-Glo reagent to each well, place the plate in a microplate shaker, and lysis under shaking at 900 rpm at room temperature for 5 minutes. Then incubate the plate at room temperature in the dark for 30 minutes. • The luminescene of each well was detected on Envision2104.
# Cell Survial %=(Lum(d7 treatment)−Lum(d2 cell))/(Lum(d7 cell)−Lum(d2 cell))×100
# Wherein: • Lum(d7 treatment) refers to the luminescene of the test compound treated cells on day7; • Lum(d2 cell) refers to the luminescene of the 0.1% DMSO treated Miapaca2 cells on day2; • Lum(d7 cell) refers to the luminescene of the 0.1% DMSO treated Miapaca2 cells on day7. • IC50 values were calculated following formula 205: y=A+((B−A)/(1+((C/X)^D))), by using the XL-Fit 5.0 software.
# [2] = biological target: Human full-length SHP2 recombinant protein (Homo sapiens (Human), UniProt Q06124); test: Assay of full-length SHP2 phosphatase activity; assay type: biochemical; settings: DiFMUP substrate, with activating peptide
# How it was run: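 Full-length human SHP2 preincubated 30 min at RT with activating peptide and compound (1% DMSO final). DiFMUP substrate added, reaction 60 min at 25 °C in dark. Fluorescence at ex 355/em 460 nm; IC50 from 4-parameter fit against enzyme-free and vehicle controls.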
# [3] = tested on: pERK1/2 (Thr202/Tyr204) in Miapaca2 cells; test: Assay of intracellular pERK1/2 (Thr202/Tyr204) phosphorylation; assay type: cell-based; settings: pERK1/2 (Thr202/Tyr204) HTRF
# How it was run: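 Miapaca2 cells treated 2 h at 37 °C with compound (3-fold series; final DMSO 0.5%), then lysed 1 h. pERK1/2 (Thr202/Tyr204) detected by HTRF (665/615 nm ratio) after 2 h at 25 °C; normalized to cell-free lysis buffer and DMSO-treated cell controls; IC50 by four-parameter fit.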
# [4] = Homo sapiens, MIA PaCa-2, 120 h
"IC50 [1, 4] [nM]",IC50 [2] [nM],"IC50 ([3]; Homo sapiens, MIA PaCa-2, 2 h) [nM]",IC50 [1] [nM],IC50 ([3]; 2 hours) [nM],SMILES
2.1,3,15,–,–,"CNC(=O)C#Cc1ccc2c(c1)[C@@H](N)C1(CCN(c3nc(N)c(Sc4ccnc(N)c4Cl)nc3F)CC1)C2 [Compound 239, (S)-3-(1-amino-1′-(6-amino-5-((2-amino-3-chloropyridin-4-yl)thio)-3-fluoropyrazin-2-yl)-1,3-dihydrospiro[indene-2,4′-piperidin]-6-yl)-N-methylpropiolamide]"
35,2,–,–,9,"CC#Cc1ccc2c(c1)[C@@H](N)C1(CCN(c3cc(=O)n(-c4ccc(F)c(OC)c4Cl)c(C)n3)CC1)C2 (atropisomer, axis not shown) [Compound 207]"
2,1,5,–,–,CCNC(=O)C#Cc1ccc2c(c1)[C@@H](N)C1(CCN(c3cnc(Sc4cc(F)nc(N)c4Cl)cn3)CC1)C2 [Compound 273]
0.8,< 0.5,7,–,–,CNC(=O)C#Cc1ccc2c(c1)[C@@H](N)C1(CCN(c3cnc(Sc4cccnc4Cl)cn3)CC1)C2 [Compound 231]
46,1,–,–,40,CNC(=O)C#Cc1ccc2c(c1)[C@@H](N)C1(CCN(c3cc(=O)n(-c4ccc(F)c(F)c4Cl)c(C)n3)CC1)C2 [Compound 202]
–,1,–,58,21,"C#Cc1ccc2c(c1)[C@@H](N)C1(CCN(c3cc(=O)n(-c4ccc(C#N)c(OC)c4Cl)c(C)n3)CC1)C2 (atropisomer, axis not shown) [Compound 191]"
3,3,8,–,–,CCNC(=O)C#Cc1ccc2c(c1)[C@@H](N)C1(CCN(c3cnc(Sc4cc(N)nc(Cl)c4Cl)c(N)n3)CC1)C2 [Compound 255]
110,6,38,–,–,COCC#Cc1cc(F)c2c(c1)[C@@H](N)C1(CCN(c3cc(=O)n(-c4cccc(Cl)c4Cl)c(C)n3)CC1)C2 [Compound 166]
0.5,1,2,–,–,"CNC(=O)C#Cc1ccc2c(c1)[C@@H](N)C1(CCN(c3cnc(Sc4ccnc(N)c4Cl)c(N)n3)CC1)C2 [Compound 229, (S)-3-(1-amino-1′-(6-amino-5-((2-amino-3-chloropyridin-4-yl)thio)pyrazin-2-yl)-1,3-dihydrospiro[indene-2,4′-piperidin]-6-yl)-N-methylpropiolamide]"
24,1,18,–,–,CNC(=O)C#Cc1ccc2c(c1)[C@@H](N)C1(CCN(c3cc(=O)n(-c4cccc(Cl)c4Cl)c(C)n3)CC1)C2 [Compound 173]
5,1.5,18,–,–,"CNC(=O)C#Cc1ccc2c(c1)[C@@H](N)C1(CCN(c3nc(N)c(Sc4ccnc(N)c4Cl)nc3Br)CC1)C2 [Compound 240, (S)-3-(1-amino-1′-(6-amino-5-((2-amino-3-chloropyridin-4-yl)thio)-3-bromopyrazin-2-yl)-1,3-dihydrospiro[indene-2,4′-piperidin]-6-yl)-N-methylpropiolamide]"
28,1,45,–,–,CNC(=O)C#Cc1ccc2c(c1)[C@@H](N)C1(CCN(c3nc(N)c(Sc4ccnc(N)n4)nc3C)CC1)C2 [Compound 216]
5,1,11,–,–,Cc1nc(N2CCC3(CC2)Cc2ccc(C#CC(N)=O)cc2[C@H]3N)cnc1Sc1ccnc(N)c1Cl [Compound 277]
20,1,–,–,14,"COCC#Cc1ccc2c(c1)[C@@H](N)C1(CCN(c3cc(=O)n(-c4ccc(F)c(OC)c4Cl)c(C)n3)CC1)C2 (atropisomer, axis not shown) [Compound 163]"
9,1,8,–,–,CNC(=O)C#Cc1ccc2c(c1)[C@@H](N)C1(CCN(c3ncc(Sc4ccnc(N)c4Cl)c4nccn34)CC1)C2 [Compound 172]
63,1,–,–,15,"CC#Cc1ccc2c(c1)[C@@H](N)C1(CCN(c3cc(=O)n(-c4ccc(F)c(Cl)c4Cl)c(C)n3)CC1)C2 (atropisomer, axis not shown) [Compound 221]"
3,1,3,–,–,CNC(=O)C#Cc1ccc2c(c1)[C@@H](N)C1(CCN(c3nc(N)c(Sc4ccnc(N)c4Cl)nc3C)CC1)C2 [Compound 187]
15,1,7,–,–,CNC(=O)C#Cc1ccc2c(c1)[C@@H](N)C1(CCN(c3nc(N)c(Sc4ccnc(C)c4Cl)nc3C)CC1)C2 [Compound 189]

# More lines, now with the values behind:
SMILES,"IC50 [1, 4] [nM]",IC50 [2] [nM],"IC50 ([3]; Homo sapiens, MIA PaCa-2, 2 h) [nM]",IC50 [1] [nM],IC50 ([3]; 2 hours) [nM]
C#Cc1ccc2c(c1)[C@@H](N)C1(CCN(c3ncc(Sc4ccnc(N)c4Cl)n4ncnc34)CC1)C2 [Compound 179],65,4,112,–,–
CC#Cc1ccc2c(c1)[C@@H](N)C1(CCN(c3nc(N)c(-c4cn(C)c5ncccc45)c(=O)n3C)CC1)C2 [Compound 286],9,2,10,–,–
C#Cc1ccc2c(c1)[C@@H](N)C1(CCN(c3nc(N)c(Sc4ccnc(N)c4Cl)nc3C)CC1)C2 [Compound 241],3.8,1.2,10,–,–
CCNC(=O)C#Cc1ccc2c(c1)[C@@H](N)C1(CCN(c3cnc(Sc4ccnc(N)c4Cl)cn3)CC1)C2 [Compound 155],0.9,1,2,–,–
COCC#Cc1ccc2c(c1)[C@@H](N)C1(CCN(c3ncc(Sc4ccnc(N)c4Cl)c4nncn34)CC1)C2 [Compound 147],48,3,10,–,–
Cc1nc(N2CCC3(CC2)Cc2ccc(C#CC(N)=O)cc2[C@H]3N)cnc1Sc1ccnc(N)n1 [Compound 281],24,10,167,–,–
C#Cc1ccc2c(c1)[C@@H](N)C1(CCN(c3ncc(Sc4ccnc(N)c4Cl)c(=O)n3CC)CC1)C2 [Compound 294],9,1,18,–,–
Cc1nc(Sc2ccnc(N)c2Cl)c(N)nc1N1CCC2(CC1)Cc1ccc(C#CC(=O)NC3CC3)cc1[C@H]2N [Compound 225],2,2,6,–,–
C#Cc1ccc2c(c1)[C@@H](N)C1(CCN(c3ncc(Sc4ccnc(N)c4Cl)c(N)n3)CC1)C2 [Compound 205],–,12,–,68,29
CCNC(=O)C#Cc1ccc2c(c1)[C@@H](N)C1(CCN(c3cnc(Sc4cccnc4C(F)(F)F)c(N)n3)CC1)C2 [Compound 235],0.9,1.7,9,–,–
"CCNC(=O)C#Cc1ccc2c(c1)[C@@H](N)C1(CCN(c3cnc(N4CCCc5ncccc54)cn3)CC1)C2 [Compound 243, (S)-3-(1-amino-1′-(5-(3,4-dihydro-1,5-naphthyridin-1(2H)-yl)pyrazin-2-yl)-1,3-dihydrospiro[indene-2,4′-piperidin]-6-yl)-N-ethylpropiolamide]",15,0.7,19,–,–
C#Cc1cc(F)c2c(c1)[C@@H](N)C1(CCN(c3ncc(Sc4ccnc(N)c4Cl)n4nccc34)CC1)C2 [Compound 176],97,38,41,–,–
CCNC(=O)C#Cc1ccc2c(c1)[C@@H](N)C1(CCN(c3cnc(Sc4ccnc(N)c4F)cn3)CC1)C2 [Compound 257],0.3,< 0.5,1,–,–
COCC#Cc1cc(F)c2c(c1)[C@@H](N)C1(CCN(c3ncc(Sc4ccnc(C)n4)c4nccn34)CC1)C2 [Compound 175],100,14,122,–,–
COCCN(C)C(=O)C#Cc1ccc2c(c1)[C@@H](N)C1(CCN(c3cnc(Sc4ccnc(N)c4Cl)cn3)CC1)C2 [Compound 301],1,0.4,5,–,–
